{"source": "patent US20070149481A1", "about": "“N,n-bridged, nitrogen-substituted carbacyclic indolocarbazoles as protein kinase inhibitors” (priority 2002, published 2007)", "key": {"[1]": {"biological_target": "T1, GSK3β (Homo sapiens, UniProt P49841)", "T1 construct": "purchased Upstate Discovery", "experiment": "Glycogen Synthase Kinase 3β inhibition assay (GSK3β)", "assay_type": "biochemical", "settings": "10 μM compound", "procedure": "The GSK3β kinase activity assay utilizes a radioactivity-based format in a 96-well PCR plate with radioactive readout. The GSK3 β activity was assayed in a 25 μL assay mixture containing 8 mM HEPES (pH 7.0), 250 μM ATP, 0.2 mM EDTA (pH 8), 2% DMSO, 250 ng/mL Myelin Basic Protein (MBP, Sigma M-1891), and 12 ng/mL GSK3β (Upstate Discovery, specific activity=607 nmol/min*GS2 peptide, concentration of 6.05 mg/mL). Compounds were screened for inhibition of the GSK3β kinase activity at a concentration of 10 μM. The kinase reaction was allowed to proceed at 37° C. for 30 minutes, then the reaction was stopped by addition of 5 μL of 0.5M EDTA (pH 8)."}, "[2]": {"experiment": "Determination of brain/plasma ratios for K252a and NAD002 for comparison with NAD0241 (Example 56F)", "assay_type": "in vivo, Wistar Han Rats", "settings": "rats, 1 hour post-administration", "procedure": "Application of Compound: 5 mg/kg of NAD 241 and NAD0180 each in a vehicle of 1.5 mL/kg PEG 400 Macrogol Ph. Eur. were applied i.v. through the femoral vein to two groups (n=3) of Wistar Han Rats weighing between 240-270 g. The application was performed under anaesthesia, initiated with 3.5% Isofluorane/O2, then maintained at 1% during compound application and suture of the vein. 200 μL of local anaesthetic lidocaine were locally administered. 1 hour after application of the compound 200 μl of blood were obtained by tail vein incision. Immediately following the blood sampling rats were terminated by decapitation after brief CO2 anaesthesia Brains were resected and weighed. Plasma was obtained by centrifugation of the tail vein blood at 13000 g for 20 minutes at 4° C. Prior art compounds […] and NAD002 and were assessed using identical conditions of application as used in example 56E to provide a direct comparison with NAD0241 for the ability to penetrate the blood-brain barrier. Volumes of injection for all compounds (including NAD0241) was fixed at 2.3 mL/kg, in average about 500-600 μL per animal. The other parameters were left unchanged. Sampling of body fluids and brain tissue was performed as described in example 56E. Extraction of compounds from brain and plasma was performed as described in example 56E but no concentrated ammonia solution was added prior to extraction of […] and NAD002. HPLC analysis of […] was performed on a 5 μm Merck RP 18 Select B 12.5×4.6 mm column at a flow rate of 0.75 mL/min with isocratic elution by acetonitrile/water 60/40 (v/v). Fluorescent excitation/emission was at 284 nm/476 nm. NAD002 was analyzed on a C 18 shield symmetry 25×4.6 mm (Waters and Owen) at 40° C. using excitation/emission wavelengths of 315/565 nm. Quantitations were performed as under example 56E."}, "[3]": {"experiment": "Determination of brain/plasma ratios for NAD0241 and comparison with NAD0180 (Example 56E)", "assay_type": "in vivo, Wistar Han Rats", "settings": "rats, 5 mg/kg i.v., 1 hour post-administration", "procedure": "Application of Compound: 5 mg/kg of NAD 241 and NAD0180 each in a vehicle of 1.5 mL/kg PEG 400 Macrogol Ph. Eur. were applied i.v. through the femoral vein to two groups (n=3) of Wistar Han Rats weighing between 240-270 g. The application was performed under anaesthesia, initiated with 3.5% Isofluorane/O2, then maintained at 1% during compound application and suture of the vein. 200 μL of local anaesthetic lidocaine were locally administered. 1 hour after application of the compound 200 μl of blood were obtained by tail vein incision. Immediately following the blood sampling rats were terminated by decapitation after brief CO2 anaesthesia Brains were resected and weighed. Plasma was obtained by centrifugation of the tail vein blood at 13000 g for 20 minutes at 4° C. […]\nEstablishment of Extraction Recovery and Standard Curve for NAD0241 and NAD0180: 100 μL of plasma or 0.5 g brain tissue homogenate in saturated NaCl, obtained from control rats, were spiked with NAD0241 and NAD0180, respectively, to produce concentrations ranging from 1 ng/mL to 5 μg/mL. […] Quantitative analysis of the extracts was performed by HPLC with fluorescence detection. […] Fluorescence detection and quantitation by peak area was performed with a G1321A (Agilent Tech 1100 series) detector at excitation and emission wavelengths of 317 nm and 542 nm, respectively, for NAD0241, and 315 nm and 565 nm for NAD0180. […]"}}}
{"smiles": "NC(=O)[C@]1(N)CC2CC1n1c3ccccc3c3c4c(c5c6ccccc6n2c5c31)C(=O)NC4=O", "note": "(mixture of isomers) [Compound 5]", "values": [{"measurement": "inhibition at 10 µM", "setting": "[1]", "value": 100, "unit": "%"}, {"measurement": "Kp at 1 h", "setting": "[2]; Wistar Han, rat, brain and plasma, iv, 5 mg/kg, 5 mg/kg i.v., 2.3 mL/kg PEG 400, read-out: brain/plasma ratio", "value": "~1"}, {"measurement": "brain concentration compared with NAD002", "setting": "[2]", "value": "Significantly higher"}, {"measurement": "improvement of brain/plasma ratio over K252a", "setting": "[2]", "value": "about two-fold"}, {"measurement": "improvement of brain/plasma ratio over NAD002", "setting": "[2]", "value": "several-fold"}, {"measurement": "plasma levels compared with NAD002 and K252a", "setting": "[2]", "value": "Lower"}, {"measurement": "brain/plasma ratio fold difference vs NAD0180 at 1 h", "setting": "[3]; Wistar Han, rat, brain and plasma, iv", "value": "> 30", "unit": "fold"}, {"measurement": "ability to pass the BBB / blood-brain barrier penetration", "setting": "[3]; NAD0241 vs NAD0180", "value": "pass more readily the BBB"}]}
